Data: US9040713B2, “Methods of managing blood sugar levels and compositions related thereto” (EMORY UNIVERSITY, priority 2010, dated 2015)

Columns and labels:
C57B5L/6J mice = assay: Hyperinsulinemic-euglycemic clamp; type: in vivo, mouse; details: 5 mg/kg oral 1 h before clamp
Method: (A) 4524-E7 provokes IR phosphorylation in various tissues of mice. Three-month-old C57BL/6J mice were starved for 12 h and then dosed with vehicle (0.5% methylcellulose) or 4524-E7 (20 mg/kg). Cell lysates from liver, muscle, and WAT were prepared at 3, 4, and 5 h after drug administration and analyzed by immunoblotting. (B) Basal and insulin-stimulated hepatic glucose production rates were measured by hyperinsulinemic-euglycemic clamp. […] (C) Hypoglycemic effect of 4524-E7 in C57BL/6J mice. C57BL/6J mice were starved for 12 h and then orally administrated with vehicle (0.5% methylcellulose) or 4524-E7 (5 mg/kg). Blood glucose was monitored at different time points as indicated (n=8, *: P<0.05, two-way ANOVA). (D) Hypoglycemic effect in db/db mice. db/db mice were starved for 12 h and then orally injected with vehicle (0.5% methylcellulose) or 4524-E7 (5 mg/kg). Blood glucose was monitored at different time points as indicated (n=5, *: P<0.05, two-way ANOVA). (E) Glucose tolerance test in ob/ob mice. The mice were starved for 12 hours and then orally administrated with vehicle or 4524-E7 (5 mg/kg). A bonus of glucose (2 gm/kg) was injected intraperitoneally 1 hour later. Blood glucose was then measured at 30 min intervals (n=13, *: P<0.05; **: P<0.01, two-way ANOVA).
C57B5L/6J mice were fasted for 12 h. […] In vivo hepatic glucose output was then determined by hyperinsulinemic-euglycemic clamp.

GST-IGFRTK = target: T1, GST-IGFRTK (Homo sapiens, UniProt P08069); assay: In vitro kinase assay (histone H2B phosphorylation); type: biochemical; details: different concentrations of 4524-E7
T1 construct: histone phosphorylation by recombinant IGFR or EGFR tyrosine kinase
T1 sequence (P08069 999-1274 limits assumed): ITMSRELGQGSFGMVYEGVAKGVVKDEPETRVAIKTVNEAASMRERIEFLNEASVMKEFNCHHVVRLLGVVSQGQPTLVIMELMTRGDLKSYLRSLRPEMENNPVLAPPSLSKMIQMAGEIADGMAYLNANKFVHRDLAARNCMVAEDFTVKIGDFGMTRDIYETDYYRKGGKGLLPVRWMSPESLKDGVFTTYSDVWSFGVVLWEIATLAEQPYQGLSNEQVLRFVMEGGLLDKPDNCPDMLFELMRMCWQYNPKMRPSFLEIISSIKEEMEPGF
Method: (§1) Parental CHO cells were used as a negative control (Bottom panel). The fluorescence-labeled cells were analyzed on flow cytometry. (B) 4524-E7 protects IRTK from proteolysis. GST-IRTK was subjected to limited trypsin or chymotrypsin digestion in the presence of 4524-E7 (50 μM), ATPyS (5 μM) or both at 37° C. for 5 min. The reaction mixture was resolved by SDS-PAGE, followed by silver staining Cleaved fragments were asterisked. (C) 4524-E7 increases IRTK activity in vitro. Recombinant GST-IRTK, GST-IGFRTK, and GST-EGFRTK were incubated with different concentrations of 4524-E7 or 10 μM 2—NH2-NQ and the kinase activity was examined by monitoring the phosphorylation of histone H2B. (E) In vitro kinase activity of various IRTK/IGF-1R kinase hybrids. The GFP-tagged kinases were expressed in HEK293, immunoprecipitated and incubated with different concentrations of 4524-E7 as indicated. […] Expressions of the kinases were also verified (lower panel).
(§2) To evaluate if 4524-E7 directly binds to the IR kinase domain, a partial proteolysis assay was performed with recombinant IRTK domain using trypsin or chymotrypsin, which was used before to characterize the interaction between IR and its small molecular ligand DAQ B1. Recombinant GST-tagged IRTK with either DMSO, 50 μM 4524-E7 or ATP-γ-S, were incubated and followed by limited trypsin or chymotrypsin digestion. […]

GST-EGFRTK = target: T2, GST-EGFRTK (Homo sapiens, UniProt P00533); assay: as above; type: biochemical; details: different concentrations of 4524-E7
T2 construct: histone phosphorylation by recombinant IGFR or EGFR tyrosine kinase
T2 sequence (P00533 712-979 limits assumed): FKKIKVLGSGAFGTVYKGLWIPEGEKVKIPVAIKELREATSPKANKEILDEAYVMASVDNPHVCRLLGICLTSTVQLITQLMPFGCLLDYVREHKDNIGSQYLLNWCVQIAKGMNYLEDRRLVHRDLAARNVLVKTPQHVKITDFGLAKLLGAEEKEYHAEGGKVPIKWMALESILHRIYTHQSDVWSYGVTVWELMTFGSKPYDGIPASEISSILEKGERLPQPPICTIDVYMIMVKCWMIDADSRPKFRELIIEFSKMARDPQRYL
Method: as §1, §2

FGFR1 = FGFR1 (Homo sapiens, UniProt P11362); assay: RTK kinase profile screen assay; type: biochemical; details: 10 μM
Chain of FGFR1 (P11362 22-822, species assumed): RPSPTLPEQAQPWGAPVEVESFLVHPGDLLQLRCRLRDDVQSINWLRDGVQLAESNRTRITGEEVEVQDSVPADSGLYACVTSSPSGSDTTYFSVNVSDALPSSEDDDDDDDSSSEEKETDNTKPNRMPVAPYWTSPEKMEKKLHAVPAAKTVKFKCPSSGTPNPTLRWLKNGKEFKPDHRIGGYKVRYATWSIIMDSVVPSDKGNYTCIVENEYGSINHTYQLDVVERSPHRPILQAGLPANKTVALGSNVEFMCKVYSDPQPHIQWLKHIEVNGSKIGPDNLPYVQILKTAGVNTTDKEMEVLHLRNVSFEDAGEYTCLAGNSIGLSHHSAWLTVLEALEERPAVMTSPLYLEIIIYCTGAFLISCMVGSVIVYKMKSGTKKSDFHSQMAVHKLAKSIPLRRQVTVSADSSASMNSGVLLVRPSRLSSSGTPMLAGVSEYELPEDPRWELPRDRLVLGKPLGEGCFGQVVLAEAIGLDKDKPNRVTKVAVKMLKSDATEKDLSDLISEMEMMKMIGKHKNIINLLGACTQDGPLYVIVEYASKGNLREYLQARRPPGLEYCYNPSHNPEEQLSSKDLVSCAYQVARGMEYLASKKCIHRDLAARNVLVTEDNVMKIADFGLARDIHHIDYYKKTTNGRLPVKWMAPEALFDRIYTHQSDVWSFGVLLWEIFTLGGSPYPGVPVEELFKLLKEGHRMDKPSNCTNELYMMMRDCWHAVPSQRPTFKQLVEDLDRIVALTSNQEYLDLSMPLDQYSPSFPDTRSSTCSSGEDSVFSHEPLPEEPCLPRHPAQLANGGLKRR

[1] = tested on: EGFR, ErbB2, EphAl, FGFR1, VEGFR1, cMet, TrkB, PDGFRa, RET; assay: RTK kinase profile screen assay; type: biochemical
IR = IR (Homo sapiens, UniProt P06213); assay: Cell-based ELISA of IR tyrosine phosphorylation in CHO-IR cells; set-up: expressed in transfected cells; host or cells: CHO (CHO-IR, gift from Dr. Nicholas Webster, UCSD)
Chain of IR (P06213 763-1382 limits assumed): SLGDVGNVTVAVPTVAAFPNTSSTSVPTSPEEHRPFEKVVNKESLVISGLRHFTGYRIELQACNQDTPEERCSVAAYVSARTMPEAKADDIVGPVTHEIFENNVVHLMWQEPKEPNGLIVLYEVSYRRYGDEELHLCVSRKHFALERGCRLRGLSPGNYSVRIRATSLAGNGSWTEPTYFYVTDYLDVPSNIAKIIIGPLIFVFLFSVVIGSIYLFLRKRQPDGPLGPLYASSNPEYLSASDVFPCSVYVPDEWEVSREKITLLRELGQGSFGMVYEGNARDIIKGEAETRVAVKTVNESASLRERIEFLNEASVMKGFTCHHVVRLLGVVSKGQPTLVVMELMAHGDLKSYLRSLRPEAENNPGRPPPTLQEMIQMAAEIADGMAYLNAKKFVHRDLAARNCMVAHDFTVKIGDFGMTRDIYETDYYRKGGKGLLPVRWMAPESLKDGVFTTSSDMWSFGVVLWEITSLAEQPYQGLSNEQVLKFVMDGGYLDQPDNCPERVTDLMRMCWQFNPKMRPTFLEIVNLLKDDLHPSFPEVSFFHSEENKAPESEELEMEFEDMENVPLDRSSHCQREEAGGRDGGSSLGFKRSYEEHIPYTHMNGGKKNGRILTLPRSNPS
Chain of IR (P06213 28-758 limits assumed): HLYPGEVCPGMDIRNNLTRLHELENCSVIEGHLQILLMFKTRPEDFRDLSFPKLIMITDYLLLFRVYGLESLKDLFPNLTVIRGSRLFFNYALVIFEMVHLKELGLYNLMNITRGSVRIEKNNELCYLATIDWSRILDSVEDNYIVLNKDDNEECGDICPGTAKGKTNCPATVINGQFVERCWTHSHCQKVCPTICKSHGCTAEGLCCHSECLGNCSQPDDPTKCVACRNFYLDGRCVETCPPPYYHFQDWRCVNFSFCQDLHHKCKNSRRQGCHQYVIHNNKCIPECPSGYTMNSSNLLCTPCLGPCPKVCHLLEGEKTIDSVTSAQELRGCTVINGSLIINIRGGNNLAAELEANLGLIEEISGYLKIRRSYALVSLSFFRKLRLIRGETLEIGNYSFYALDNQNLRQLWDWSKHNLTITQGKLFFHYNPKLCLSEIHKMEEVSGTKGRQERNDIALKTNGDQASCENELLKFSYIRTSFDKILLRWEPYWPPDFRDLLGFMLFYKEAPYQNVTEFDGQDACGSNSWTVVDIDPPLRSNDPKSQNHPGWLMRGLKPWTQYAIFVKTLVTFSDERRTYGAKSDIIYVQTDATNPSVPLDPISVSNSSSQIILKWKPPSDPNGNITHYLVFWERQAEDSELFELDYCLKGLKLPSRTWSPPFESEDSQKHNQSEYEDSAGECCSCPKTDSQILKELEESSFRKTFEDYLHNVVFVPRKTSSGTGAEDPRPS
Method: A cell-based screening assay was developed with Chinese hamster ovary cells stably transfected with IR (CHO-IR) by using an ELISA to determine the IR tyrosine phosphorylation. […] Other 1,4-Napthoquinones that are structurally related to 4524-E7 were evaluated.
CHO-IR cells were seeded in a 96-well plate at 15,000 cells per well in […] of 0.1% FBS medium with 0.1% FBS. […] Cells were lysed, and phosphorylated receptors were captured with pY20 immobilized on ELISA plates. Bound receptors were washed, then detected using an anti-IR beta antibody, followed by an horseradish peroxidase-conjugated secondary antibody and colorimetric detection with 3,3′,5,5′-tetramethylbenzidine.
A cell-based ELISA assay was developed with an IR stably transfected Chinese Hamster Ovary (CHO-IR) cell line. […] The cell lysates were subjected to the sandwich ELISA using immobilized anti-phosphotyrosine antibody and anti-IR antibody.

MET = MET (Homo sapiens, UniProt P08581); assay: RTK kinase profile screen assay; type: biochemical; details: 10 μM
Chain of MET (P08581 25-1390): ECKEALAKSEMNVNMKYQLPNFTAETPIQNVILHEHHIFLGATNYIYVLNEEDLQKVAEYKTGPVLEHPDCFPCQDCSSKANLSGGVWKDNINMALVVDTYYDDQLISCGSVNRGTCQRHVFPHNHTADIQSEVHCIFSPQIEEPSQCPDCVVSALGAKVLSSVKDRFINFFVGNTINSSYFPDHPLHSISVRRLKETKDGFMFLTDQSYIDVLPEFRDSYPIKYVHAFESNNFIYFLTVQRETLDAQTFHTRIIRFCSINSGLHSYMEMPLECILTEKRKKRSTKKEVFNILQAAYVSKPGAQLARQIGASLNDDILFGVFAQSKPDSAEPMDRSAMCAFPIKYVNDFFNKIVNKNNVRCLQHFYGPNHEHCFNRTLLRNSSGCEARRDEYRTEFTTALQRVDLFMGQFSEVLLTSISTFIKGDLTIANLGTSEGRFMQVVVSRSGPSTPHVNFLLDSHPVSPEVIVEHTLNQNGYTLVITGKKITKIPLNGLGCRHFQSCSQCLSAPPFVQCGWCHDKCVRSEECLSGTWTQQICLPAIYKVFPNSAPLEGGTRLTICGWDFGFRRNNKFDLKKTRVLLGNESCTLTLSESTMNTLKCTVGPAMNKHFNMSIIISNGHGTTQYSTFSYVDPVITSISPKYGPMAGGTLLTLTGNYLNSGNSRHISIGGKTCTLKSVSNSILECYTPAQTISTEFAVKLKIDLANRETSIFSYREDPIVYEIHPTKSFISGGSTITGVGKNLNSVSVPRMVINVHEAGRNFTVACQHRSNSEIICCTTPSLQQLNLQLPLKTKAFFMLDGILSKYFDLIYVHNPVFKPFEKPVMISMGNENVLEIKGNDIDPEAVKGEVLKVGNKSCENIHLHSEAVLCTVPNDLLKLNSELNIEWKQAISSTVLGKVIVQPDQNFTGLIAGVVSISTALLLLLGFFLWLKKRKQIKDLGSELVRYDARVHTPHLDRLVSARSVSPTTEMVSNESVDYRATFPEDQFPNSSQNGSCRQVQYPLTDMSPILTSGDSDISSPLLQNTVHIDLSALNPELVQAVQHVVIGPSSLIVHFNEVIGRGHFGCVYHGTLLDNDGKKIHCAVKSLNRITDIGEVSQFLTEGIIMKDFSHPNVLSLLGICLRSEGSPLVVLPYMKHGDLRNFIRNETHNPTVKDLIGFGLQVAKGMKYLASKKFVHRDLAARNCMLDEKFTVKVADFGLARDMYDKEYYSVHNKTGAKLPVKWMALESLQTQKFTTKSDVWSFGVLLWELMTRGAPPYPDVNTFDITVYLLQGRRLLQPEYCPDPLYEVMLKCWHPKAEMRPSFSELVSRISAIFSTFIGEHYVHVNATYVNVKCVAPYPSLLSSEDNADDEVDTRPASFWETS

SMILES: O=C1c2ccccc2C(=O)C2SC(Nc3ccc(Cl)cc3)=NC12 (centres unmarked) [4524-E7, 2-((4-chlorophenyl)amino)naphtho[2,3-d]thiazole-4,9(3aH,9aH)-dione]
- insulin-stimulated suppression of hepatic glucose output (C57B5L/6J mice): potentiated the insulin actions in suppressing hepatic glucose output
- IGFR tyrosine kinase activity (histone phosphorylation) (GST-IGFRTK): no effect
- EGFR tyrosine kinase activity (histone phosphorylation) (GST-EGFRTK): no effect
- inhibition of FGFR1 (FGFR1): slightly inhibited
- activation of tested RTKs [1]: none of the tested RTKs
- IR phosphorylation (IR; 5 μM, 15 min, CHO-IR cells, ELISA): about 250 % of basal level
- concentration at which IR activation peaked (IR; 15 min, dose-response): 10 µM
- concentration at which IR activation started (IR; 15 min, dose-response): 2.5 µM
- time at which IR activation is triggered (IR; 4524-E7 5 μM or insulin 50 nM): 5 min
- time at which IR activation peaked (IR; 4524-E7 5 μM or insulin 50 nM): 30 min
- inhibition of MET (MET): slightly inhibited
